Laboratory results from article PMC8214221, “Sequence determinants in the cathelicidin LL-37 that promote inflammation via presentation of RNA to scavenger receptors” (The Journal of Biological Chemistry, 2021).
Residues, ends and D or L forms follow the SMILES beside them.

How the values were obtained:
[1] = system: normal human epidermal keratinocytes (NHEKs); test: LDH release cytotoxicity assay in keratinocytes; format: cell-based; settings: minimal concentration giving 50% LDH release by NHEKs
Outline: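 Normal human epidermal keratinocytes were exposed to LL-34 parent and alanine-substituted peptides. Cytotoxicity was read as LDH release in fresh culture supernatants after treatment, using a commercial kit, and reported as the minimal concentration showing toxicity.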

[2] = system: NHEKs, IL-6 secretion in response to U1 dsRNA; test: IL-6 secretion ELISA in NHEKs; format: cell-based, human; settings: U1 dsRNA 2.5 μg/ml + peptide 2 μM, 18 h, n = 3
Protocol: Protein levels of human IL-6 were analyzed from cell supernatant with ELISA (n = 3). Corresponding MIC values of LL-34 peptides L1A–R34A against Staphylococcus aureus USA300 are shown in the heat map. B, human dermal endothelial cells (HDMECs) were treated with either U1 dsRNA (2.5 μg/ml) or a combination of U1 dsRNA (2.5 μg/ml) and LL-34 peptides (Pep 1–Pep 34 and Pep–parent LL-34) at 2 μM for 18 h. IL-6 ELISA results are shown (n = 3). Green bars denote loss of IL-6 protein secretion compared with parent control shown in red. C, helical wheel plot for LL-34. Amino acids with green circles denote specific residues where replacement with an alanine caused the loss of IL-6 secretion compared with parent LL-34 peptide in NHEKs cotreated with U1 dsRNA. D, in the helical wheel plot for LL-34, circled green amino acids indicate that a substitution caused a loss of vetting in HDMEC. E–H, NHEKs were treated with LL-34-parent peptide (LL-34-P), LL-34-F5A, LL-34-I24A, LL-34-F27A, and LL-34-L31A at 2 μM, either individually or in combination with U1 dsRNA (2.5 μg/ml) for 8 h. Gene expression of IL-6, IFNB1, TSLP, and CXCL10 was assessed with qRT-PCR. GAPDH was used as a reference gene (n = 3) (∗p < 0.05; ∗∗∗∗p < 0.0001). One way-ANOVA was used. IL-6, interleukin 6; LL-34, 34-amino acid peptide; MIC, minimum inhibitory concentration, ns, not significant.
We hypothesized that sequential replacement of each amino acid in LL-34 peptide with a neutral amino acid alanine might reveal the amino acid residues critical for its ability to induce inflammation in response to U1 dsRNA. First, we treated NHEKs and human dermal microvascular endothelial cells (HDMECs) with LL-34 parent peptide and each of the 34 mutants at 2 μM for 18 h and measured the secretion of interleukin 6 (IL-6) in the supernatant by ELISA (Fig. S1, A and B). […] We then treated both NHEKs and HDMECs with a combination of U1 dsRNA (2.5 μg/ml) and the LL-34 parent/mutant peptides at 2 μM for 18 h and measured IL-6 secretion (Fig. 1, A–C). […] A similar pattern of IL-6 release was observed when HDMECs were treated with the peptide library and U1 dsRNA (Fig. 1B).
Cell culture supernatant was frozen at −80 °C until use for analysis. ELISA was performed with sandwich ELISA kits (R&D Systems) and quantified on a Spectramax Absorbance reader (Molecular Biosystems). Data were analyzed with GraphPad.

Row | SMILES | Minimal cytotoxic concentration in NHEK (LD50) [1] [µM] | IL-6 protein secretion, cotreatment with U1 dsRNA, vs U1 dsRNA + LL-34 parent [2]
1 | CC[C@H](C)[C@H](NC(=O)[C@H](C)NC(=O)[C@H](CCC(N)=O)NC(=O)[C@@H](NC(=O)[C@@H](NC(=O)[C@H](CCCNC(=N)N)NC(=O)[C@H](CCCCN)NC(=O)[C@H](Cc1ccccc1)NC(=O)[C@H](CCC(=O)O)NC(=O)[C@H](CCCCN)NC(=O)CNC(=O)[C@@H](NC(=O)[C@H](CCCCN)NC(=O)[C@H](CCC(=O)O)NC(=O)[C@H](CCCCN)NC(=O)[C@H](CO)NC(=O)[C@H](CCCCN)NC(=O)[C@H](CCCNC(=N)N)NC(=O)[C@H](Cc1ccccc1)NC(=O)[C@H](Cc1ccccc1)NC(=O)[C@H](CC(=O)O)NC(=O)CNC(=O)[C@H](CC(C)C)NC(=O)[C@@H](N)CC(C)C)[C@@H](C)CC)[C@@H](C)CC)C(C)C)C(=O)N[C@@H](CCCCN)C(=O)N[C@@H](CC(=O)O)C(=O)N[C@@H](Cc1ccccc1)C(=O)N[C@@H](CC(C)C)C(=O)N[C@@H](CCCNC(=N)N)C(=O)N[C@@H](CC(N)=O)C(=O)N[C@@H](CC(C)C)C(=O)N[C@H](C(=O)N1CCC[C@H]1C(=O)N[C@@H](CCCNC(=N)N)C(=O)O)C(C)C [LL-34—R23A] (H-LLGDFFRKSKEKIGKEFKRIVQAIKDFLRNLVPR-OH) | 10 | reduced secretion of IL-6 protein
2 | CC[C@H](C)[C@H](NC(=O)[C@H](CCCCN)NC(=O)[C@H](CCC(=O)O)NC(=O)[C@H](CCCCN)NC(=O)[C@H](CO)NC(=O)[C@H](CCCCN)NC(=O)[C@H](CCCNC(=N)N)NC(=O)[C@H](Cc1ccccc1)NC(=O)[C@H](Cc1ccccc1)NC(=O)[C@H](CC(=O)O)NC(=O)CNC(=O)[C@H](CC(C)C)NC(=O)[C@@H](N)CC(C)C)C(=O)NCC(=O)N[C@@H](CCCCN)C(=O)N[C@@H](CCC(=O)O)C(=O)N[C@@H](Cc1ccccc1)C(=O)N[C@@H](CCCCN)C(=O)N[C@@H](CCCNC(=N)N)C(=O)N[C@@H](C)C(=O)N[C@H](C(=O)N[C@@H](CCC(N)=O)C(=O)N[C@@H](CCCNC(=N)N)C(=O)N[C@H](C(=O)N[C@@H](CCCCN)C(=O)N[C@@H](CC(=O)O)C(=O)N[C@@H](Cc1ccccc1)C(=O)N[C@@H](CC(C)C)C(=O)N[C@@H](CCCNC(=N)N)C(=O)N[C@@H](CC(N)=O)C(=O)N[C@@H](CC(C)C)C(=O)N[C@H](C(=O)N1CCC[C@H]1C(=O)N[C@@H](CCCNC(=N)N)C(=O)O)C(C)C)[C@@H](C)CC)C(C)C [LL-34—I20A] (H-LLGDFFRKSKEKIGKEFKRAVQRIKDFLRNLVPR-OH) | 5 | reduced secretion of IL-6 protein
3 | CC[C@H](C)[C@H](NC(=O)[C@H](CCCCN)NC(=O)[C@H](CCC(=O)O)NC(=O)[C@H](CCCCN)NC(=O)[C@H](CO)NC(=O)[C@H](CCCCN)NC(=O)[C@H](CCCNC(=N)N)NC(=O)[C@H](Cc1ccccc1)NC(=O)[C@H](Cc1ccccc1)NC(=O)[C@H](CC(=O)O)NC(=O)CNC(=O)[C@H](CC(C)C)NC(=O)[C@@H](N)CC(C)C)C(=O)NCC(=O)N[C@@H](CCCCN)C(=O)N[C@@H](CCC(=O)O)C(=O)N[C@@H](C)C(=O)N[C@@H](CCCCN)C(=O)N[C@@H](CCCNC(=N)N)C(=O)N[C@H](C(=O)N[C@H](C(=O)N[C@@H](CCC(N)=O)C(=O)N[C@@H](CCCNC(=N)N)C(=O)N[C@H](C(=O)N[C@@H](CCCCN)C(=O)N[C@@H](CC(=O)O)C(=O)N[C@@H](Cc1ccccc1)C(=O)N[C@@H](CC(C)C)C(=O)N[C@@H](CCCNC(=N)N)C(=O)N[C@@H](CC(N)=O)C(=O)N[C@@H](CC(C)C)C(=O)N[C@H](C(=O)N1CCC[C@H]1C(=O)N[C@@H](CCCNC(=N)N)C(=O)O)C(C)C)[C@@H](C)CC)C(C)C)[C@@H](C)CC [LL-34—F17A] (H-LLGDFFRKSKEKIGKEAKRIVQRIKDFLRNLVPR-OH) | 5 | reduced secretion of IL-6 protein
4 | CC[C@H](C)[C@H](NC(=O)[C@H](C)NC(=O)[C@H](CCCCN)NC(=O)[C@H](Cc1ccccc1)NC(=O)[C@H](CCC(=O)O)NC(=O)[C@H](CCCCN)NC(=O)CNC(=O)[C@@H](NC(=O)[C@H](CCCCN)NC(=O)[C@H](CCC(=O)O)NC(=O)[C@H](CCCCN)NC(=O)[C@H](CO)NC(=O)[C@H](CCCCN)NC(=O)[C@H](CCCNC(=N)N)NC(=O)[C@H](Cc1ccccc1)NC(=O)[C@H](Cc1ccccc1)NC(=O)[C@H](CC(=O)O)NC(=O)CNC(=O)[C@H](CC(C)C)NC(=O)[C@@H](N)CC(C)C)[C@@H](C)CC)C(=O)N[C@H](C(=O)N[C@@H](CCC(N)=O)C(=O)N[C@@H](CCCNC(=N)N)C(=O)N[C@H](C(=O)N[C@@H](CCCCN)C(=O)N[C@@H](CC(=O)O)C(=O)N[C@@H](Cc1ccccc1)C(=O)N[C@@H](CC(C)C)C(=O)N[C@@H](CCCNC(=N)N)C(=O)N[C@@H](CC(N)=O)C(=O)N[C@@H](CC(C)C)C(=O)N[C@H](C(=O)N1CCC[C@H]1C(=O)N[C@@H](CCCNC(=N)N)C(=O)O)C(C)C)[C@@H](C)CC)C(C)C [LL-34—R19A] (H-LLGDFFRKSKEKIGKEFKAIVQRIKDFLRNLVPR-OH; N-terminus and C-terminus assumed) | 10 | 
5 | CC[C@H](C)[C@H](NC(=O)[C@H](CCCCN)NC(=O)[C@H](CCC(=O)O)NC(=O)[C@H](CCCCN)NC(=O)[C@H](CO)NC(=O)[C@H](CCCCN)NC(=O)[C@H](CCCNC(=N)N)NC(=O)[C@H](Cc1ccccc1)NC(=O)[C@H](Cc1ccccc1)NC(=O)[C@H](CC(=O)O)NC(=O)CNC(=O)[C@H](C)NC(=O)[C@@H](N)CC(C)C)C(=O)NCC(=O)N[C@@H](CCCCN)C(=O)N[C@@H](CCC(=O)O)C(=O)N[C@@H](Cc1ccccc1)C(=O)N[C@@H](CCCCN)C(=O)N[C@@H](CCCNC(=N)N)C(=O)N[C@H](C(=O)N[C@H](C(=O)N[C@@H](CCC(N)=O)C(=O)N[C@@H](CCCNC(=N)N)C(=O)N[C@H](C(=O)N[C@@H](CCCCN)C(=O)N[C@@H](CC(=O)O)C(=O)N[C@@H](Cc1ccccc1)C(=O)N[C@@H](CC(C)C)C(=O)N[C@@H](CCCNC(=N)N)C(=O)N[C@@H](CC(N)=O)C(=O)N[C@@H](CC(C)C)C(=O)N[C@H](C(=O)N1CCC[C@H]1C(=O)N[C@@H](CCCNC(=N)N)C(=O)O)C(C)C)[C@@H](C)CC)C(C)C)[C@@H](C)CC [LL-34—L2A] (H-LAGDFFRKSKEKIGKEFKRIVQRIKDFLRNLVPR-OH; N-terminus and C-terminus assumed) | 5 | 
6 | CC[C@H](C)[C@H](NC(=O)[C@H](CCCCN)NC(=O)[C@H](CCC(=O)O)NC(=O)[C@H](CCCCN)NC(=O)[C@H](CO)NC(=O)[C@H](CCCCN)NC(=O)[C@H](CCCNC(=N)N)NC(=O)[C@H](Cc1ccccc1)NC(=O)[C@H](Cc1ccccc1)NC(=O)[C@H](CC(=O)O)NC(=O)CNC(=O)[C@H](CC(C)C)NC(=O)[C@@H](N)CC(C)C)C(=O)NCC(=O)N[C@@H](CCCCN)C(=O)N[C@@H](CCC(=O)O)C(=O)N[C@@H](Cc1ccccc1)C(=O)N[C@@H](CCCCN)C(=O)N[C@@H](CCCNC(=N)N)C(=O)N[C@H](C(=O)N[C@H](C(=O)N[C@@H](CCC(N)=O)C(=O)N[C@@H](CCCNC(=N)N)C(=O)N[C@H](C(=O)N[C@@H](CCCCN)C(=O)N[C@@H](CC(=O)O)C(=O)N[C@@H](Cc1ccccc1)C(=O)N[C@@H](CC(C)C)C(=O)N[C@@H](CCCNC(=N)N)C(=O)N[C@@H](CC(N)=O)C(=O)N[C@@H](CC(C)C)C(=O)N[C@H](C(=O)N[C@@H](C)C(=O)N[C@@H](CCCNC(=N)N)C(=O)O)C(C)C)[C@@H](C)CC)C(C)C)[C@@H](C)CC [LL-34—P33A] (H-LLGDFFRKSKEKIGKEFKRIVQRIKDFLRNLVAR-OH; N-terminus and C-terminus assumed) | 10 | 
